# Laboratory results as given in patent US8232279B2, “Pyrazolopyrimidine derivatives having biological activity on serotonin receptor 5-HT2c” (Korea Institute of Science and Technology, priority 2009, dated 2012).
# Biological target: T1, human recombinant 5-HT2C receptor (Homo sapiens, UniProt P28335)
# T1 construct: expressed in transfected cells
# T1 sequence (P28335 33-458): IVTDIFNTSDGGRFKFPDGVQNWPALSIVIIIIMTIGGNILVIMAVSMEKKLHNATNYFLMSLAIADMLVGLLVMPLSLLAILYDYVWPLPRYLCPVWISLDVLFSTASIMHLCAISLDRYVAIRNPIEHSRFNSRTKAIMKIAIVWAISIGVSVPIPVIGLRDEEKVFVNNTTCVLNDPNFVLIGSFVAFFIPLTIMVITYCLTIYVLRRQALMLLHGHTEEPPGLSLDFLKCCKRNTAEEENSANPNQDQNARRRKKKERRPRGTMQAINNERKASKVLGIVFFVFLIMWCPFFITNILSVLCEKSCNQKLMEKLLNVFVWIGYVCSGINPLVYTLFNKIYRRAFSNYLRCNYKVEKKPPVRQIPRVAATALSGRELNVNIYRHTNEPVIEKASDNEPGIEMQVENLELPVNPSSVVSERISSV
# Test: [3H]Mesulergine binding to serotonin 5-HT2C receptor
# Conditions: [3H]Mesulergine (1 nM); membranes from CHO-K1 cell line expressing human recombinant 5-HT2C receptor; 30 min at 37° C.; read-out: Affinity for 5-HT2C receptor (IC50)
# Protocol: [^3H]Mesulergine Binding to Serotonin 5-HT2C Receptor
# Frozen membranes from stable CHO—K1 cell line expressing the human recombinant 5-HT2C receptor were used. For the binding assay, [^3H]Mesulergine (1 nM), receptor membrane (4 ug/well) and test compounds were added into 50 mM Tris-HCl (pH 7.7) buffer containing 0.1% ascorbic acid and 10 uM pargyline. Nonspecific binding was determined using 0.5 uM mianserin. The incubations were performed for 30 min at 37° C., and these were terminated by rapid filtration through Whatman GF/C glass fiber filters presoaked in 1% BSA. Then, the resultant was washed with cold 50 mM Tris-HCl buffer. The filter was covered with MeltiLex, sealed in a sample bag followed by drying in the microwave oven, and counted by MicroBeta Plus (Wallac, Finland). Nonspecific binding was determined in the presence of mianserin (0.5 uM). Competition binding studies were carried out with 7-8 varied concentrations of the test compounds run in duplicate tubes, and isotherms from three assays were calculated by computerized nonlinear regression analysis (GraphPad Prism Program, San Diego, USA) to yield IC50 values (Table 1).
row,Structure (SMILES),IC50
1,"CCN(CC)c1nc(Nc2ccc(F)cc2)c2cnn(C)c2n1 [Comp. 20, N^6,N^6-diethyl-N^4-(4-fluorophenyl)-1-methyl-1H-pyrazolo[3,4-d]pyrimidine-4,6-diamine]",3310 nM
2,"CCN(CC)c1nc(Nc2ccc(C)c(C)c2)c2cnn(C)c2n1 [Comp. 4, N^4-(3,4-dimethylphenyl)-N^6,N^6-diethyl-1-methyl-1H-pyrazolo[3,4-d]pyrimidine-4,6-diamine]",8490 nM
3,"CC1CCN(c2nc(Nc3ccc(F)cc3)c3cnn(C)c3n2)CC1 [Comp. 24, N-(4-fluorophenyl)-1-methyl-6-(4-methylpiperidine-1-yl)-1H-pyrazolo[3,4-d]pyrimidine-4-amine]",1500 nM
4,"COc1cccc(Nc2nc(N3CCN(C)CC3)nc3c2cnn3C)c1 [Comp. 32, N-(3-methoxyphenyl)-1-methyl-6-(4-methylpiperazine-1-yl)-1H-pyrazolo[3,4-d]pyrimidine-4-amine]",7.8 nM
5,"CCN(CC)c1nc(Nc2ccc(Cl)cc2)c2cnn(C)c2n1 [Comp. 5, N^4-(4-chlorophenyl)-N^6,N^6-diethyl-1-methyl-1H-pyrazolo[3,4-d]pyrimidine-4,6-diamine]",991 nM
6,"CCN(CC)c1nc(Nc2ccccc2C)c2cnn(C)c2n1 [Comp. 7, N^6,N^6-diethyl-1-methyl-N^4-o-tolyl-1H-pyrazolo[3,4-d]pyrimidine-4,6-diamine]",242 nM
7,"Cn1ncc2c(Nc3ccc(F)cc3)nc(NCc3ccccc3)nc21 [Comp. 16, N^6-benzyl-N4-(4-fluorophenyl)-1-methyl-1H-pyrazolo[3,4-d]pyrimidine-4,6-diamine]",2590 nM
8,"COCCNc1nc(Nc2ccc(F)cc2)c2cnn(C)c2n1 [Comp. 11, N^4-(4-fluorophenyl)-N^6-(2-methoxyethyl)-1-methyl-1H-pyrazolo[3,4-d]pyrimidine-4,6-diamine]",> 1000 nM
9,"CN1CCN(c2nc(Nc3ccc(F)cc3)c3cnn(C)c3n2)CC1 [Comp. 25, N-(4-fluorophenyl)-1-methyl-6-(4-methylpiperazine-1-yl)-1H-pyrazolo[3,4-d]pyrimidine-4-amine]",85.8 nM
10,"CN1CCN(c2nc(Nc3ccc(F)cc3)c3cnn(C)c3n2)CC1 [Comp. 35, N-(4-fluorophenyl)-1-methyl-6-(4-methylpiperazine-1-yl)-1H-pyrazolo[3,4-d]pyrimidine-4-amine]",20.1 nM
11,"COc1cccc(Nc2nc(N3CCN(c4ccc(F)cc4)CC3)nc3c2cnn3C)c1 [Comp. 33, 6-(4-(4-fluorophenyl)piperazine-1-yl)-N-(3-methoxyphenyl)-1-methyl-1H-pyrazolo[3,4-d]pyrimidine-4-amine]",1080 nM
12,"COCCCNc1nc(Nc2ccc(F)cc2)c2cnn(C)c2n1 [Comp. 12, N^4-(4-fluorophenyl)-N^6-(3-methoxypropyl)-1-methyl-1H-pyrazolo[3,4-d]pyrimidine-4,6-diamine]",> 1000 nM
13,"Cn1ncc2c(Nc3ccc(F)cc3)nc(NCCCO)nc21 [Comp. 10, 3-(4-(4-fluorophenylamino)-1-methyl-1H-pyrazolo[3,4-d]pyrimidine-6-ylamino)propane-1-ol]",> 1000 nM
14,"CN1CCN(c2nc(Nc3ccc(Cl)cc3)c3cnn(C)c3n2)CC1 [Comp. 6, N^6-(4-chlorophenyl)-1-methyl-6-(4-methylpiperazine-1-yl)-1H-pyrazolo[3,4-d]pyrimidine-4-amine]",29.4 nM
15,"CN(C)c1nc(Nc2ccc(F)cc2)c2cnn(C)c2n1 [Comp. 19, N^4-(4-fluorophenyl)-N^6,N^6,1-trimethyl-1H-pyrazolo[3,4-d]pyrimidine-4,6-diamine]",4030 nM
16,"Cc1ccc(CNc2nc(Nc3ccc(F)cc3)c3cnn(C)c3n2)cc1 [Comp. 17, N^4-(4-fluorophenyl)-1-methyl-N^6-(4-methylbenzyl)-1H-pyrazolo[3,4-d]pyrimidine-4,6-diamine]",5830 nM

row,Structure (SMILES),IC50
1,"CC1CC(C)CN(c2nc(Nc3ccc(F)cc3)c3cnn(C)c3n2)C1 (stereo not drawn) [Comp. 23, 6-(3,5-dimethylpiperidine-1-yl)-N-(4-fluorophenyl)-1-methyl-1H-pyrazolo[3,4-d]pyrimidine-4-amine]",3820 nM
2,"COc1ccccc1N1CCN(c2nc(Nc3ccc(F)cc3)c3cnn(C)c3n2)CC1 [Comp. 30, N-(4-fluorophenyl)-6-(4-(2-methoxyphenyl)piperazine-1-yl)-1-methyl-1H-pyrazolo[3,4-d]pyrimidine-4-amine]",1720 nM
3,"CCNc1nc(Nc2ccc(F)cc2)c2cnn(C)c2n1 [Comp. 9, N^6-ethyl-N^4-(4-fluorophenyl)-1-methyl-1H-pyrazolo[3,4-d]pyrimidine-4,6-diamine]",> 1000 nM
4,"CCN(CC)c1nc(Nc2cccc(OC)c2)c2cnn(C)c2n1 [Comp. 31, N^6,N^6-diethyl-N^4-(3-methoxyphenyl)-1-methyl-1H-pyrazolo[3,4-d]pyrimidine-4,6-diamine]",5420 nM
5,"CN1CCN(c2nc(Nc3ccccc3)c3cnn(C)c3n2)CC1 [Comp. 3, 1-methyl-6-(4-methylpiperazine-1-yl)-N-phenyl-1H-pyrazolo[3,4-d]pyrimidine-4-amine]",86.9 nM
6,"Cn1ncc2c(Nc3ccc(F)cc3)nc(N3CCCCC3)nc21 [Comp. 22, N-(4-fluorophenyl)-1-methyl-6-(piperidine-1-yl)-1H-pyrazolo[3,4-d]pyrimidine-4-amine]",1300 nM
7,"Cn1ncc2c(Nc3ccc(F)cc3)nc(NC3CCCC3)nc21 [Comp. 15, N^6-cyclopentyl-N^4-(4-fluorophenyl)-1-methyl-1H-pyrazolo[3,4-d]pyrimidine-4,6-diamine]",> 1000 nM
8,"Cn1ncc2c(Nc3ccc(F)cc3)nc(N3CCN(c4ccccc4)CC3)nc21 [Comp. 28, N-(4-fluorophenyl)-1-methyl-6-(4-phenylpiperazine-1-yl)-1H-pyrazolo[3,4-d]pyrimidine-4-amine]",416 nM
9,"Cn1ncc2c(Nc3ccc(F)cc3)nc(NC3CCCCC3)nc21 [Comp. 14, N^6-cyclohexyl-N^4-(4-fluorophenyl)-1-methyl-1H-pyrazolo[3,4-d]pyrimidine-4,6-diamine]",5710 nM
10,"Cn1ncc2c(Nc3ccc(F)cc3)nc(N3CCN(Cc4ccccc4)CC3)nc21 [Comp. 27, 6-(4-benzylpiperazine-1-yl)-N-(4-fluorophenyl)-1-methyl-1H-pyrazolo[3,4-d]pyrimidine-4-amine]",836 nM
11,"Cn1ncc2c(Nc3ccc(F)cc3)nc(N3CCN(c4ccc(F)cc4)CC3)nc21 [Comp. 29, N-(4-fluorophenyl)-6-(4-(4-fluorophenyl)piperazine-1-yl)-1-methyl-1H-pyrazolo[3,4-d]pyrimidine-4-amine]",148 nM
12,"Cn1ncc2c(Nc3ccc(F)cc3)nc(NCCN3CCOCC3)nc21 [Comp. 18, N^4-(4-fluorophenyl)-1-methyl-N^6-(2-morpholinoethyl)-1H-pyrazolo[3,4-d]pyrimidine-4,6-diamine]",> 1000 nM
13,"C=CCNc1nc(Nc2ccc(F)cc2)c2cnn(C)c2n1 [Comp. 13, N^6-allyl-N^4-(4-fluorophenyl)-1-methyl-1H-pyrazolo[3,4-d]pyrimidine-4,6-diamine]",> 1000 nM
14,"Cn1ncc2c(Nc3ccc(F)cc3)nc(N3CCOCC3)nc21 [Comp. 21, N-(4-fluorophenyl)-1-methyl-6-morpholino-1H-pyrazolo[3,4-d]pyrimidine-4-amine]",2070 nM
15,"Cn1ncc2c(Nc3ccc(F)cc3)nc(N3CCN(CCO)CC3)nc21 [Comp. 26, 2-(4-(4-(4-fluorophenylamino)-1-methyl-1H-pyrazolo[3,4-d]pyrimidine-6-yl)piperazine-1-yl)ethanol]",494 nM
16,"CNc1nc(Nc2ccc(F)cc2)c2cnn(C)c2n1 [Comp. 8, N^4-(4-fluorophenyl)-N^6,1-dimethyl-1H-pyrazolo[3,4-d]pyrimidine-4,6-diamine]",7790 nM

# Same assay, conditions: read-out: Affinity for 5-HT2C receptor (IC50)
row,Structure (SMILES),IC50
1,"COc1ccc(Nc2nc(N3CCN(c4ccc(F)cc4)CC3)nc3c2cnn3C)cc1 [Comp. 34, 6-(4-(4-fluorophenyl)piperazine-1-yl)-N-(4-methoxyphenyl)-1-methyl-1H-pyrazolo[3,4-d]pyrimidine-4-amine]",1180 nM
